Source: US8110368B1, “Synuclein gamma as a biomarker of obesity and obesity-related disorders” (The United States of America Department of Agriculture, as …, priority 2008, dated 2012)

Key:
[1] = tested on: γ-synuclein mRNA in 3T3-L1 adipocytes; assay: γ-synuclein mRNA expression in 3T3-L1 adipocytes treated with PPARγ agonist (quantitative real-time PCR); assay type: cell-based, murine
Description: 3T3-L1 Adipocyte Differentiation & PPARγAgonist Studies. Results herein were generated using the samples described in our recently-published studies (1). Briefly, murine 3T3-L1 fibroblasts (ATCC, Manassas, Va.) grown to between 5-9 passages were induced to differentiate into adipocytes using a protocol similar to Farmer et al. (i.e., (22)). Two-day-confluent cells grown in high-glucose (25 mM) DMEM and 10% FBS (37° C., 5% CO2) in 6-well rat tail collagen-coated plates were exposed to differentiation medium containing 10 μg/ml bovine insulin (˜1.6 μM), 1 μM dexamethasone, and 0.5 mM 3-isobutyl-1-methylxanthine (IBMX) for 2 days. Cells were grown thereafter in maintenance medium (DMEM/10% FBS+2.5 μg/mL insulin). Cell culture media was replaced daily. Proof-of-principle studies tested the ability of the potent non-thiazoladinedione PPARγ agonist GW1929 (23) to regulate γ-synuclein gene expression at various points in the 3T3-L1 adipocyte differentiation and maturation process, as indicated. For these experiments, cells were cultured for the times and doses indicated in media containing vehicle (DMSO; 0.1% by vol.) or GW1929 (0.1% by vol.). RNA was prepared from 3T3-L1 adipocytes using Trizol-based methods for cell culture samples (Ambion, Austin, Tex.). RNA abundance and integrity were checked using a Nanoprop® ND-1000 Spectrophotometer (Nanoprop Technologies, Wilmington, Del.) and an Agilent 2100 bioanalyzer (Agilent, Foster City, Calif.) per manufacturer's instructions.
Gene Expression Analyses. RNA abundance of γ-synuclein and of other genes of interest were measured in 3T3-L1 adipocyte samples using quantitative real-time PCR, as described in detail previously (1). These assays utilized gene-specific TaqMan primers and FAM-MGB labeled probes (Assays-on-Demand®, Applied Biosystems Inc., Foster City, Calif.) and were run in duplicate or triplicate for each sample using an ABI 7900HT instrument. Primers/probe ABI identifiers for human reagents were γ-synuclein (Hs00268306 ml), leptin (Hs00174877 ml), and 11B-hydroxysteroid dehydrogenase (11β-HSD-1; Hs00194153 ml), and for mouse, γ-synuclein (Mm00488345 ml) and others described previously (1). Mouse and human tissue panel samples, and samples derived from non-obese and obese WAT (24) were assayed using a two-step process with preparation of cDNA from total RNA, followed by quantitative real-time PCR. […] Amplification cycle number (Ct) of 18S for each sample was determined using commercial 18S primers and probe (ABI) to correct for template loading differences across all target genes (ΔCt method: ΔCt=sample Ct−18S Ct), and expression values were determined relative to control transcript levels using a mathematical formula as previously described (1). […]

[2] = tested on: leptin mRNA in 3T3-L1 adipocytes; assay: leptin mRNA expression in 3T3-L1 adipocytes treated with PPARγ agonist (quantitative real-time PCR); assay type: cell-based, murine; settings: fully-differentiated 3T3-L1 adipocytes, 18 hr treatment, compared with the γ-synuclein mRNA decrease
Description: 3T3-L1 Adipocyte Differentiation & PPARγAgonist Studies. Results herein were generated using the samples described in our recently-published studies (1). Briefly, murine 3T3-L1 fibroblasts (ATCC, Manassas, Va.) grown to between 5-9 passages were induced to differentiate into adipocytes using a protocol similar to Farmer et al. (i.e., (22)). Two-day-confluent cells grown in high-glucose (25 mM) DMEM and 10% FBS (37° C., 5% CO2) in 6-well rat tail collagen-coated plates were exposed to differentiation medium containing 10 μg/ml bovine insulin (˜1.6 μM), 1 μM dexamethasone, and 0.5 mM 3-isobutyl-1-methylxanthine (IBMX) for 2 days. […]
Gene Expression Analyses. RNA abundance of γ-synuclein and of other genes of interest were measured in 3T3-L1 adipocyte samples using quantitative real-time PCR, as described in detail previously (1). […] Mouse and human tissue panel samples, and samples derived from non-obese and obese WAT (24) were assayed using a two-step process with preparation of cDNA from total RNA, followed by quantitative real-time PCR. […] Amplification cycle number (Ct) of 18S for each sample was determined using commercial 18S primers and probe (ABI) to correct for template loading differences across all target genes (ΔCt method: ΔCt=sample Ct−18S Ct), and expression values were determined relative to control transcript levels using a mathematical formula as previously described (1). […]

Compound | effective doses required to decrease γ-synuclein and leptin mRNA, compared to GW1929 ([1]; 3T3-L1 adipocytes, data not shown) | decrease of γ-synuclein mRNA abundance ([1]; fully-differentiated 3T3-L1 adipocytes, 18 hr treatment, dose-response, vs vehicle (DMSO)) [%] | γ-synuclein expression (direction of change) ([1]; mature fat cells, single dose, short-term (18 hr) exposure) | γ-synuclein mRNA (direction of change) ([1]; pre-adipocytes and immature adipocytes, single dose, short-term (18 hr) exposure) | leptin mRNA pattern in response to short-term treatment [2]
Cc1c(C)c2c(c(C)c1O)CCC(C)(COc1ccc(CC3SC(=O)NC3=O)cc1)O2 (centres unmarked) [troglitazone] | at least 5 fold |  |  |  | 
CN(CCOc1ccc(C[C@H](Nc2ccccc2C(=O)c2ccccc2)C(=O)O)cc1)c1ccccn1 [GW1929] |  | ≤ 50 | decrease | increased | paralleled qualitatively
